Literature values as cited in patent US20050129762A1, “Extended release pharmaceutical dosage form” (Wyeth, priority 2003, published 2005).
Where a name gives a salt, the structure may show the parent alone.

Conditions: plural daily dosing regimen, immediate release tablets

Vomiting, share of patients: about seventeen
nausea, share of patients under treatment: about forty five
Structure (SMILES): COc1ccc(C(CN(C)C)C2(O)CCCCC2)cc1 (centres unmarked) [venlafaxine hydrochloride, 1-[2-(dimethylamino)-1-(4-methoxyphenyl)ethyl]-cyclohexanol]
